These results are taken from patent US20260176270A1 (Exelixis, Inc., priority 2022, published 2026).

Experiment [1] relates to phosphorylation of CDK1 at Thr14 in HCC1806 cells. Description: Cell lysate AlphaLISA assay measuring inhibition of phosphorylation of CDK1 Thr14. In kind it is cell-based. Particulars: read-out: Cellular IC50. Summed up: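 HCC1806 cells seeded overnight, then treated 4 h at 37 °C, 5% CO2 with compounds in DMSO; washed and lysed, lysates frozen overnight at −80 °C. CDK1 Thr14 phosphorylation read by AlphaLISA SureFire Ultra; data normalized to DMSO (0% inhibition) and 3 μM reference compound to give IC50.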

Another experiment concerns the target T1, PKMYT1 (Homo sapiens, UniProt Q99640).
T1 construct: PKMYT1 (93 kD, full length, N-terminal GST tag from Signal Chem); GST (N); purchased Signal Chem
T1 sequence (Q99640 1-499): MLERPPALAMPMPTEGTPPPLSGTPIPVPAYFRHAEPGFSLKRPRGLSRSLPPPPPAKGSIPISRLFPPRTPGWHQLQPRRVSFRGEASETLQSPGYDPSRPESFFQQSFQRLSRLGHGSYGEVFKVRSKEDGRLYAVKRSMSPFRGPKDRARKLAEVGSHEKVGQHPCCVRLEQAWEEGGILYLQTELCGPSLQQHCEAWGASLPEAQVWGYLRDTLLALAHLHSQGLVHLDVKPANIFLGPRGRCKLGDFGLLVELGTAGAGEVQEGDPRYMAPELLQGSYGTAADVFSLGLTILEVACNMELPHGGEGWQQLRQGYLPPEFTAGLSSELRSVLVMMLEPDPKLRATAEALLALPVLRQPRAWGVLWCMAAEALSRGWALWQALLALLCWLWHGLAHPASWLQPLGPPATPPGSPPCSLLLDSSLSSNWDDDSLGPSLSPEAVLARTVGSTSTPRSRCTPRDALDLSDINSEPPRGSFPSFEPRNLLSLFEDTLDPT
Briefly: ADP-Glo PKMYT1 ATP-depletion assay. Particulars: 50 nM PKMYT1, 13.3 nM CDK1, read-out: Biochemical IC50. Summed up:
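Full-length N-terminal GST-tagged PKMYT1 (50 nM) with GST-CDK1 (13.3 nM) as substrate and 88 µM ATP, in Hepes buffer with MgCl2, MnCl2, DTT and BSA; DMSO <1%. Incubated 120 min at RT. ADP formed was quantified by ADP-Glo luminescence and used to derive biochemical IC50.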

Where two headings read alike, the source gives them in different places.

Regarding `Cc1c(O)cccc1-c1c(N)c(C(N)=O)nc2cccc(C#N)c12` [Compound 129, 3-Amino-5-cyano-4-(3-hydroxy-2-methylphenyl)quinoline-2-carboxamide], the IC50 in experiment [1] (Homo sapiens, HCC1806, 4 h) is less than 50 nM; at PKMYT1, less than 50 nM.

As for `Cc1c(O)cccc1-c1c(N)c(C(N)=O)cc2ncc(=O)n(C)c12` [Compound 202], the concentration for half-maximal inhibition (IC50) in experiment [1] (Homo sapiens, HCC1806, 4 h) was not below 5000 nM; on PKMYT1, 1000 to 5000 nM.

For the compound `NC(=O)c1nc2cccnc2c(-c2cnn3ccccc23)c1N` [Compound 323], the IC50 in experiment [1] (Homo sapiens, HCC1806, 4 h) was not below 5000 nM; at PKMYT1 it was 1000 to 5000 nM.

For the compound `Cc1ccc2[nH]ncc2c1-c1cc(C(N)=O)cc2nccnc12` [Compound 70, 8-(5-Methyl-1H-indazol-4-yl)quinoxaline-6-carboxamide], the IC50 in experiment [1] (Homo sapiens, HCC1806, 4 h) is not below 5000 nM; at PKMYT1, not below 5000 nM.

For `NC(=O)c1nc2cccnc2c(-c2cccc3[nH]nc(F)c23)c1N` (atropisomer, axis not shown) [Compound 305], the IC50 lay in the range of 1000 to 5000 nM in experiment [1] (4 hours) and 50 to 500 nM on PKMYT1.

On to `Cc1c(F)cncc1C1=c2ncccc2=NC(C(N)=O)C1N` (stereo not drawn) [Compound 225], for which the IC50 (in experiment [1] (4 hours); on PKMYT1) was not below 5000 nM in each case.

For the compound `Cc1ccc(O)c(C)c1-c1c(N)c(C(N)=O)cc2nc(C(F)(F)F)cnc12` (single isomer, unassigned) [Compound 112, (P)-7-Amino-8-(3-hydroxy-2,6-dimethylphenyl)-3-(trifluoromethyl)quinoxaline-6-carboxamide], the IC50 was 50 to 500 nM in experiment [1] (4 hours) and less than 50 nM on PKMYT1.

For `Cc1c(O)cccc1-c1c(N)c(C(N)=O)cc2nccnc12` (single isomer, unassigned) [Compound 89, (M)-7-amino-8-(3-hydroxy-2-methylphenyl)quinoxaline-6-carboxamide], the half-inhibitory concentration (IC50) in experiment [1] (4 hours) was not below 5000 nM; on PKMYT1, 1000 to 5000 nM.

For the compound `Cc1ccc(O)c(C)c1-c1c(N)c(C(N)=O)nc2cc(Cl)ccc12` [Compound 42, 3-Amino-7-chloro-4-(3-hydroxy-2,6-dimethylphenyl)quinoline-2-carboxamide], the IC50 lay within 1000 to 5000 nM in experiment [1] (Homo sapiens, HCC1806, 4 h) and 500 to 1000 nM at PKMYT1.

For the compound `Cc1c(O)cccc1-c1c(N)c(C(N)=O)cc2nc(N3CCOCC3)cnc12` [Compound 321], the IC50 in experiment [1] (Homo sapiens, HCC1806, 4 h) was 500 to 1000 nM; at PKMYT1, less than 50 nM.

With `Cc1ccc(O)c(C)c1-c1c(N)c(C(N)=O)nc2ccccc12` (atropisomer, axis not shown; (P)) [Compound 45, (P)-3-amino-4-(3-hydroxy-2,6-dimethylphenyl)quinoline-2-carboxamide], the IC50 is not below 5000 nM in experiment [1] (4 hours) and 1000 to 5000 nM on PKMYT1.

As to `Cc1c(O)cccc1-c1c(N)c(C(N)=O)nc2cc(Cl)ccc12` [Compound 37, 3-Amino-7-chloro-4-(3-hydroxy-2-methylphenyl)quinoline-2-carboxamide], the IC50 in experiment [1] (Homo sapiens, HCC1806, 4 h) was in the range of 1000 to 5000 nM; on PKMYT1 it was 1000 to 5000 nM.

Consider `Cc1ccc(O)c(C)c1-c1c(N)c(C(N)=O)cc2nc(C(F)(F)F)cnc12` (single isomer, unassigned) [Compound 111, (M)-7-Amino-8-(3-hydroxy-2,6-dimethylphenyl)-3-(trifluoromethyl)quinoxaline-6-carboxamide], for which the values for the IC50 (in experiment [1] (4 hours); on PKMYT1) were not below 5000 nM and 1000 to 5000 nM, respectively.

Take `Cc1c(O)cccc1-c1c(N)c(C(N)=O)nc2cc(C(F)(F)F)ccc12` [Compound 59, 3-Amino-4-(3-hydroxy-2-methylphenyl)-7-(trifluoromethyl) quinoline-2-carboxamide]: the IC50 was 1000 to 5000 nM in experiment [1] (4 hours) and not below 5000 nM on PKMYT1.

As to `COc1nc2cc(C(N)=O)c(N)c(-c3cccc(O)c3C)c2nc1C` (atropisomer, axis not shown) [Compound 187], the concentration for half-maximal inhibition (IC50) in experiment [1] (4 hours) was 50 to 500 nM; on PKMYT1, less than 50 nM.

`CCNc1cnc2c(-c3c(C)ccc(O)c3C)c(N)c(C(N)=O)cc2n1` [Compound 326]: the IC50 in experiment [1] (Homo sapiens, HCC1806, 4 h) lay within 1000 to 5000 nM; at PKMYT1 it was 50 to 500 nM.

For `Cc1ccc(O)c(C)c1-c1c(N)c(C(N)=O)nc2ccc(F)cc12` (atropisomer, axis not shown; (P)) [Compound 24, (P)-3-amino-6-fluoro-4-(3-hydroxy-2,6-dimethylphenyl) quinoline-2-carboxamide], the IC50 is not below 5000 nM in experiment [1] (4 hours) and 1000 to 5000 nM on PKMYT1.

Turning to `NC(=O)c1cc2nccnc2c(-c2c(Cl)ccc3[nH]ncc23)c1N` [Compound 142], the IC50 in experiment [1] (4 hours) was in the range of 1000 to 5000 nM; on PKMYT1 it was 50 to 500 nM.

As to `NC(=O)c1nc2cccnc2c(-c2ccc(F)c3[nH]ncc23)c1N` [Compound 190], the IC50 in experiment [1] (Homo sapiens, HCC1806, 4 h) was 1000 to 5000 nM; at PKMYT1 it was 50 to 500 nM.

In the case of `Cc1cc2c[nH]nc2cc1-c1c(N)c(C(N)=O)nc2cccnc12` [Compound 205], the 50% inhibitory concentration (IC50) is not below 5000 nM in experiment [1] (Homo sapiens, HCC1806, 4 h) and not below 5000 nM at PKMYT1.

With `Cc1cc(CO)ccc1-c1c(N)c(C(N)=O)nc2cccnc12` [Compound 221], the concentration for half-maximal inhibition (IC50) in experiment [1] (Homo sapiens, HCC1806, 4 h) was not below 5000 nM; at PKMYT1, not below 5000 nM.

For the compound `NC(=O)c1nc2cccnc2c(-c2cccc3[nH]nc(F)c23)c1N` (atropisomer, axis not shown) [Compound 304], the half-maximal inhibitory concentration (IC50) (in experiment [1] (4 hours); on PKMYT1) was not below 5000 nM each time.

As for `Cc1c(O)cccc1-c1c(N)c(C(N)=O)cc2nc(C(F)(F)F)c(O)nc12` (atropisomer, axis not shown) [Compound 135], the 50% inhibitory concentration (IC50) lay within 1000 to 5000 nM in experiment [1] (4 hours) and 50 to 500 nM at PKMYT1.

With `Cc1ccc(O)c(C)c1-c1cc(C(N)=O)cc2cccnc12` [Compound 60, 8-(3-Hydroxy-2,6-dimethyl-phenyl)quinoline-6-carboxamide], the IC50 in experiment [1] (Homo sapiens, HCC1806, 4 h) is not below 5000 nM; at PKMYT1, 500 to 1000 nM.

Consider `Cc1ccc(O)c(C)c1-c1c(N)c(C#N)cc2nccnc12` (atropisomer, axis not shown) [Compound 301], for which the half-maximal inhibitory concentration (IC50) (in experiment [1] (4 hours); on PKMYT1) was not below 5000 nM each time.

Take `Cc1ccc(O)cc1-c1c(N)c(C(N)=O)cc2nccnc12` [Compound 123, 7-Amino-8-(5-hydroxy-2-methylphenyl)quinoxaline-6-carboxamide]: the results for the IC50 (in experiment [1] (4 hours); at PKMYT1) were 1000 to 5000 nM and 50 to 500 nM, respectively.

Consider `Cc1c(O)cccc1-c1c(N)c(C(N)=O)cc2cccnc12` [Compound 61, 7-Amino-8-(3-hydroxy-2-methylphenyl)quinoline-6-carboxamide], for which the IC50 in experiment [1] (Homo sapiens, HCC1806, 4 h) was 50 to 500 nM; at PKMYT1 it was less than 50 nM.

For `Cc1c(O)cccc1-c1c(N)c(C(N)=O)cc2ccn(C)c(=O)c12` (atropisomer, axis not shown) [Compound 337], the figures for the 50% inhibitory concentration (IC50) (in experiment [1] (4 hours); on PKMYT1) were 1000 to 5000 nM and 500 to 1000 nM, respectively.

Take `Cc1c(O)cccc1-c1cc(C(N)=O)nc2ccccc12` [Compound 13]: the IC50 in experiment [1] (Homo sapiens, HCC1806, 4 h) was not below 5000 nM; on PKMYT1 it was 1000 to 5000 nM.

For `Cc1cnc2[nH]ncc2c1-c1c(N)c(C(N)=O)cc2nccnc12` [Compound 234], the concentration for half-maximal inhibition (IC50) in experiment [1] (Homo sapiens, HCC1806, 4 h) is not below 5000 nM; on PKMYT1 it was not below 5000 nM.

As to `CCOc1ccc2nc(C(N)=O)c(N)c(-c3cccc(O)c3C)c2n1` [Compound 154], the IC50 in experiment [1] (Homo sapiens, HCC1806, 4 h) was 50 to 500 nM; on PKMYT1, less than 50 nM.

For the compound `NC(=O)c1nc2cccnc2c(-c2cccc3c2CCN3C=O)c1N` [Compound 162], the half-maximal inhibitory concentration (IC50) was not below 5000 nM in experiment [1] (Homo sapiens, HCC1806, 4 h) and not below 5000 nM on PKMYT1.

For the compound `Cc1c(O)cccc1-c1c(N)c(C(N)=O)nc2nccc(C#N)c12` [Compound 260], the IC50 is not below 5000 nM in experiment [1] (Homo sapiens, HCC1806, 4 h) and not below 5000 nM on PKMYT1.

On to `Cc1ccc2[nH]ncc2c1-c1cc(C(N)=O)nc2ccccc12` [Compound 15, 4-(5-Methyl-1H-indazol-4-yl)quinoline-2-carboxamide], for which the IC50 in experiment [1] (Homo sapiens, HCC1806, 4 h) was not below 5000 nM; on PKMYT1, not below 5000 nM.

`Cc1ccc(O)c(C)c1-c1c(N)c(C(N)=O)nc2c(C(F)(F)F)cccc12` (single isomer, unassigned) [Compound 30, (M)-3-Amino-4-(3-hydroxy-2,6-dimethylphenyl)-8-(trifluoromethyl) quinoline-2-carboxamide]: the values for the IC50 (in experiment [1] (4 hours); at PKMYT1) were less than 50 nM and 50 to 500 nM, respectively.

With `Cn1c(-c2c(N)c(C(N)=O)nc3cccnc23)cccc1=O` [Compound 158], the half-maximal inhibitory concentration (IC50) in experiment [1] (Homo sapiens, HCC1806, 4 h) is not below 5000 nM; on PKMYT1, 1000 to 5000 nM.

Regarding `Cc1ccc(O)c(C)c1-c1c(N)c(C(N)=O)nc2c(F)cccc12` (single isomer, unassigned) [Compound 38, (M)-3-Amino-8-fluoro-4-(3-hydroxy-2,6-dimethylphenyl) quinoline-2-carboxamide], the IC50 (in experiment [1] (4 hours); on PKMYT1) was 50 to 500 nM each time.

`Cc1ccc2[nH]nc(F)c2c1-c1c(N)c(C(N)=O)cc2nccnc12` (atropisomer, axis not shown) [Compound 300]: the figures for the concentration for half-maximal inhibition (IC50) (in experiment [1] (4 hours); on PKMYT1) were 1000 to 5000 nM and 50 to 500 nM, respectively.

`COc1ccc2nc(C(N)=O)c(N)c(-c3cccc(O)c3C)c2n1` (atropisomer, axis not shown) [Compound 175]: the concentration for half-maximal inhibition (IC50) (in experiment [1] (4 hours); on PKMYT1) was not below 5000 nM each time.
